What was measured:
Type in all cases: in vivo
[1] = system: Chilo suppressalis; test: Striped stem borer (Chilo suppressalis), sprayed petriplates with rice straw; details: 300 ppm; first-instar larvae, 72 hours after treatment
Procedure: (§1) The active compound is dissolved at the desired concentration in a mixture of 1:1 (vol:vol) distilled water: acetone. Surfactant (Kinetic® HV) is added at a rate of 0.01% (vol/vol). The test solution is prepared at the day of use.
Ten first-instar larvae are allowed to crawl on sprayed petriplates for 1 minute and then provided with one freshly cut rice straw per plate. After 10 minutes when all of the larvae are inside the straw will then be covered with Petri lid. Percent mortality is recorded after 72 hours after treatment.

[2] = system: Nilaparvata lugens; test: Rice brown plant hopper (Nilaparvata lugens), sprayed rice seedlings; details: adults, after 72 hours, read-out: mortality in comparison with untreated controls
Procedure: (§2) Four to five-week old rice seedlings were cleaned and washed 24 hours before spraying. The active compounds were formulated in 1:1 acetone:water (vol:vol) and 0.01% vol/vol surfactant (Kinetic® HV) was added. Potted rice seedlings were sprayed with 5-6 ml test solution, air dried, covered with Mylar cages and inoculated with 10 adults. Treated rice plants were kept at about 28-29° C. and relative humidity of about 50-60%. Percent mortality was recorded after 72 hours.

[3] = system: Spodoptera Eridania; test: Southern armyworm (Spodoptera Eridania), sprayed lima bean plants; details: 96 h, larvae, 4 days after treatment, read-out: mortality in comparison with untreated controls
Procedure: The active compounds were formulated by a Tecan liquid handler in 100% cyclohexanone as a 10,000 ppm solution supplied in tubes. The 10,000 ppm solution was serially diluted in 100% cyclohexanone to make interim solutions. These served as stock solutions for which final dilutions were made by the Tecan in 50% acetone:50% water (v/v) into 10 or 20 ml glass vials. A nonionic surfactant (Kinetic®) was included in the solution at a volume of 0.01% (v/v). The vials were then inserted into an automated electrostatic sprayer equipped with an atomizing nozzle for application to plants/insects.
Lima bean plants (variety Sieva) were grown 2 plants to a pot and selected for treatment at the 1st true leaf stage. Test solutions were sprayed onto the foliage by an automated electrostatic plant sprayer equipped with an atomizing spray nozzle. The plants were dried in the sprayer fume hood and then removed from the sprayer. Each pot was placed into perforated plastic bags with a zip closure. About 10 to 11 armyworm larvae were placed into the bag and the bags zipped closed. Test plants were maintained in a growth room at about 250C and about 20-40% relative humidity for 4 days, avoiding direct exposure to fluorescent light (24 hour photoperiod) to prevent trapping of heat inside the bags. Mortality and reduced feeding were assessed 4 days after treatment, compared to untreated control plants.

[4] = system: Nephotettix virescens; test: Rice green leafhopper (Nephotettix virescens), sprayed rice seedlings; details: adults, after 72 hours, read-out: mortality in comparison with untreated controls
Procedure: as §2, with “rice seedlings with cut upper leaf portion were cleaned” for “rice seedlings were cleaned”, “1:1 acetone:water (vol:vol), and 0.01%” for “1:1 acetone:water (vol:vol) and 0.01%”

[5] = system: Heliothis virescens; test: Tobacco budworm (Heliothis virescens) control, microtiter plate insect diet test; details: 120 h, egg and larval mortality after 5 days, read-out: mortality in comparison with untreated controls
Procedure: For evaluating control of tobacco budworm (Heliothis virescens) the test unit consisted of 96-well-microtiter plates containing an insect diet and 15-25 H. virescens eggs.
The compounds were formulated using a solution containing 75% v/v water and 25% v/v DMSO. Different concentrations of formulated compounds were sprayed onto the insect diet at 10 μl, using a custom built micro atomizer, at two replications.
After application, microtiter plates were incubated at about 28±1° C. and about 80±5% relative humidity for 5 days. Egg and larval mortality was then visually assessed.

[6] = system: Myzuspersicae; test: Green peach aphid (Myzuspersicae) control through systemic means, artificial diet under membrane; details: Myzus persicae, 72 h, adult aphids on treated diet, 3 days, read-out: mortality in comparison with untreated controls
Text: For evaluating control of green peach aphid (Myzuspersicae) through systemic means the test unit consisted of 96-well-microtiter plates containing liquid artificial diet under an artificial membrane.
The compounds were formulated using a solution containing 75% v/v water and 25% v/v DMSO. Different concentrations of formulated compounds were pipetted into the aphid diet, using a custom built pipetter, at two replications.
After application, 5-8 adult aphids were placed on the artificial membrane inside the microtiter plate wells. The aphids were then allowed to suck on the treated aphid diet and incubated at about 23±1° C. and about 50±5% relative humidity for 3 days. Aphid mortality and fecundity was then visually assessed.

[7] = system: Anthonomus grandis; test: Boll weevil (Anthonomus grandis) control, microtiter plate insect diet test; details: 120 h, egg and larval mortality after 5 days, read-out: mortality in comparison with untreated controls
Procedure: For evaluating control of boll weevil (Anthonomus grandis) the test unit consisted of 96-well-microtiter plates containing an insect diet and 5-10 A. grandis eggs.
The compounds were formulated using a solution containing 75% v/v water and 25% v/v DMSO. Different concentrations of formulated compounds were sprayed onto the insect diet at 5 μl, using a custom built micro atomizer, at two replications.
After application, microtiter plates were incubated at about 25±1° C. and about 75±5% relative humidity for 5 days. Egg and larval mortality was then visually assessed.

[8] = system: Megoura viciae; test: Vetch aphid (Megoura viciae) control, broad bean leaf disk test; details: foliar, 120 h, adult aphids on treated leaf disks, 5 days, read-out: mortality in comparison with untreated controls
Procedure: For evaluating control of vetch aphid (Megoura viciae) through contact or systemic means the test unit consisted of 24-well-microtiter plates containing broad bean leaf disks.
The compounds were formulated using a solution containing 75% v/v water and 25% v/v DMSO. Different concentrations of formulated compounds were sprayed onto the leaf disks at 2.5 μl, using a custom built micro atomizer, at two replications.
After application, the leaf disks were air-dried and 5-8 adult aphids placed on the leaf disks inside the microtiter plate wells. The aphids were then allowed to suck on the treated leaf disks and incubated at about 23±1° C. and about 50±5% relative humidity for 5 days. Aphid mortality and fecundity was then visually assessed.

[9] = system: Aphis craccivora; test: Cowpea aphid (Aphis craccivora), sprayed potted cowpea plants; details: after 72 hours, read-out: mortality in comparison with untreated controls
Procedure: as §1
Potted cowpea plants were colonized with approximately 30-50 aphids of various stages by manually transferring a leaf tissue cut from infested plant 24 hours before application. Plants were sprayed with the test solutions using a DeVilbiss® hand atomizer at 20-30 psi (=1.38 to 2.07 bar) after the pest population has been checked. Treated plants are maintained on light carts at about 25-26° C. Percent mortality was assessed after 72 hours.

[10] = system: Nezara viridula; test: Green soldier stink bug (Nezara viridula), sprayed soybean pods in Petri dishes; details: 120 h, late 3rd instar, after 5 days, read-out: mortality in comparison with untreated controls
Procedure: The active compound is dissolved at the desired concentration in a mixture of 1:1 (vol:vol) distilled water: aceteone. Surfactant (Kinetic® HV) is added at a rate of 0.01% (vol/vol). The test solution is prepared at the day of use.
Soybean pods were placed in 90×50 mm glass Petri dishes lined with moist filter paper and inoculated with ten late 3rd instar N. viridula. Using a hand atomizer, an approximately 2 ml solution is sprayed into each Petri dish. Treated cups were kept at about 25-26° C. and relative humidity of about 65-70%. Percent mortality was recorded after 5 days.

[11] = system: Plutella xylostella; test: Diamond back moth (Plutella xylostella), cabbage leaf dip test; details: foliar, 3rd instar larvae, 72 hours after treatment, read-out: mortality in comparison with untreated controls
Procedure: as §1
Leaves of cabbage were dipped in test solution and air-dried. Treated leaves were placed in petri dishes lined with moist filter paper and inoculated with ten 3rd instar larvae. Mortality was recorded 72 hours after treatment. Feeding damages were also recorded using a scale of 0-100%.

[12] = system: Bemisia argentifolii; test: Silverleaf whitefly (Bemisia argentifolii), sprayed cotton plants; details: 72 h, adults, 3 days after treatment, read-out: mortality in comparison with untreated controls
Procedure: The active compounds were formulated by a Tecan liquid handler in 100% cyclohexanone as a 10,000 ppm solution supplied in tubes. The 10,000 ppm solution was serially diluted in 100% cyclohexanone to make interim solutions. These served as stock solutions for which final dilutions were made by the Tecan in 50% acetone:50% water (v/v) into 5 or 10 ml glass vials. A nonionic surfactant (Kinetic®) was included in the solution at a volume of 0.01% (v/v). The vials were then inserted into an automated electrostatic sprayer equipped with an atomizing nozzle for application to plants/insects.
Cotton plants at the cotyledon stage (one plant per pot) were sprayed by an automated electrostatic plant sprayer equipped with an atomizing spray nozzle. The plants were dried in the sprayer fume hood and then removed from the sprayer. Each pot was pla-ced into a plastic cup and about 10 to 12 whitefly adults (approximately 3-5 days old) were introduced. The insects were collected using an aspirator and a nontoxic Tygon® tubing connected to a barrier pipette tip. The tip, containing the collected insects, was then gently inserted into the soil containing the treated plant, allowing insects to crawl out of the tip to reach the foliage for feeding. Cups were covered with a reusable screened lid. […] Mortality was assessed 3 days after treatment, compared to untreated control plants.

With CCS(=O)(=O)c1cc(-c2ncccc2F)cnc1-c1cn2c(=O)n(C)c(C(F)(F)F)cc2n1 [I-1-4] the “mortality in comparison with untreated controls” value [1] was “over 75%”.

CCS(=O)(=O)c1cc(N2CCCC2=O)cnc1-c1cn2c(=O)n(C)c(C(F)(F)F)cc2n1 [I-1-3, 2-[3-ethylsulfonyl-5-(2-oxopyrrolidin-1-yl)-2-pyridyl]-6-methyl-7-(trifluoromethyl)imidazo[1,2-c]pyrimidin-5-one] showed a mortality at 300 ppm [2] of over 75%, a mortality at 300 ppm [3] of over 75% and a mortality at 300 ppm [4] of over 75%. It also gave a mortality at 2500 ppm [5] of over 75%, a mortality at 2500 ppm [6] of over 75% and a mortality at 2500 ppm [7] of over 75%. It also gave a mortality at 2500 ppm [8] of over 75%, a mortality at 300 ppm [9] of over 75% and a mortality at 300 ppm [10] of over 75%.

CCS(=O)(=O)c1ccc(-n2cnc(C(F)(F)F)n2)nc1-c1cn2c(=O)n(C)c(C(F)(F)F)cc2n1 [I-1-1, 2-[3-ethylsulfonyl-6-[3-(trifluoromethyl)-1,2,4-triazol-1-yl]-2-pyridyl]-6-methyl-7-(trifluoromethyl)imidazo[1,2-c]pyrimidin-5-one] showed a mortality at 300 ppm [3] of over 75%, a mortality at 2500 ppm [5] of over 75% and a mortality at 2500 ppm [6] of over 75%. It also gave a mortality at 2500 ppm [7] of over 75%, a mortality at 300 ppm [11] of over 75% and a mortality at 300 ppm [12] of over 75%.
